The source of these data is patent publication US20110293757A1, “Compositions Comprising Tea Tree Oil and Methods for the Prevention and Treatment of Cancer” (priority 2008, published 2011).

In one data set the test system is AE17 mesothelioma. Kind of data set: Topical treatment of subcutaneous murine AE17 mesothelioma tumours, tumour area by micro-callipers. The settings on record: 50 ul topically; 4% terpinen-4-ol, 2% γ-terpinene, 1% α-terpinene, 0.5% 1,8-cineole, 0.5% p-cymene; vs untreated controls. It is filed as in vivo, C57BL/6J mice. The text has this:
The models used, murine AE17 mesothelioma and murine B16 melanoma tumour, both involve the implantation of tumour cell lines subcutaneously onto the rear flank of fully immuno-competent mice. Palpable tumours arise within 3-14 days.
Female fully immuno-competent C57BL/6J mice between 6-8 weeks of ages are obtained from the Animal Resources Centre (Perth, Australia) and maintained under SPF (specified pathogen free) housing conditions (Animal Care Unit, University of Western Australia).
AE17 cells were derived from the peritoneal cavity of C57BL/6J mice injected with asbestos fibres (Jackaman, 2003) and (Davis, 1992) and are injected subcutaneously at a concentration of 1×10^7 per mouse (Needham, 2006). […]

The test system of data set [1] is B16 melanoma, UV induced squamous carcinoma and Lewis lung carcinoma. Conditions: 18 μg, 3 topical treatments (Ogbourne, 2004); cited from earlier work.
In a further data set the test system is skin. Conditions: cited from earlier work.

As for `CC12CCC(CC1)C(C)(C)O2` [1,8-cineole], the “AE17 tumour growth, components applied singly with DMSO” value (from here on “AE17 tumour growth”) in the data set on AE17 mesothelioma is “lack of efficacy”.

As for `C/C=C(/C)C(=O)O[C@H]1C(C)=C[C@]23C(=O)[C@@H](C=C(CO)[C@@H](O)[C@]12O)[C@H]1[C@@H](C[C@H]3C)C1(C)C` [3-Ingenyl-Angelate], the tumour regression entry in data set [1] is “induces tumour regression with just 3 topical treatments”. Moreover, the “skin reaction on topical application” value in the data set with skin is reported as “elicits skin irritation”.

Turning to `CC(C)Cn1cnc2c(N)nc3ccccc3c21` [Imiquimod], the “skin reaction on topical application” value in the data set with skin was “redness, drying and scabbing”.

Consider `Cc1ccc(C(C)C)cc1` [p-cymene], for which the “AE17 tumour growth” value with AE17 mesothelioma is recorded as “lack of efficacy”.

As for `CC1=CCC(O)(C(C)C)CC1` (centres unmarked) [terpinen-4-ol], the “AE17 tumour growth” value in the data set on AE17 mesothelioma is listed as “lack of efficacy”.

As to `CC1=CC=C(C(C)C)CC1` [α-terpinene], in the data set on AE17 mesothelioma, the “AE17 tumour growth” value is listed as “lack of efficacy”.

Take `CC1=CCC(C(C)C)=CC1` [γ-terpinene]: the “AE17 tumour growth” value in the data set on AE17 mesothelioma is “lack of efficacy”.
